Literature values as cited in PMC11406440 (Food and chemical toxicology : an international journal …, 2024).
Where two headings read alike, the source gives them in different places.

Assays:
male rats = settings: 3 and 10 mg/kg/d; ref Butenhoff et al., 2009; cited from earlier work
mice = settings: dermal exposure; ref Weatherly et al., 2021, 2023; cited from earlier work
[1] = 5% dermal exposure, same conditions; ref Weatherly et al., 2023; cited from earlier work
[2] = ex vivo mouse skin; ref Franko et al., 2012; cited from earlier work
IgM response to SRBC = settings: cited from earlier work
[3] = 4-day dermal exposure, ref Franko et al., 2012, cited from earlier work
[4] = ref ATSDR, 2021; cited from earlier work
[5] = ex vivo human full-thickness skin; ref Franko et al., 2012; cited from earlier work

| SMILES | Cholesterol (mice) | Glucose levels (mice) | Average serum concentration [1] [µg/mL] | Average urine concentration [1] [µg/mL] | also measured |
| --- | --- | --- | --- | --- | --- |
| O=S(=O)([O-])C(F)(F)C(F)(F)C(F)(F)C(F)(F)C(F)(F)C(F)(F)F.[K+] [K^+PFHxS, PFHxS potassium salt] | – | – | – | – | Liver weight (male rats): increase |
| O=C(O)C(F)(F)C(F)(F)C(F)(F)F [PFBA, heptafluorobutyric acid] | increased | increased | – | – | – |
| O=C(O)C(F)(F)C(F)(F)C(F)(F)C(F)(F)C(F)(F)C(F)(F)F [PFHpA, perfluoroheptanoic acid] | no effect | increased | 137 | 1200 | – |
| O=C(O)C(F)(F)C(F)(F)C(F)(F)C(F)(F)C(F)(F)F [PFHxA, perfluorohexanoic acid] | no effect | increased | 4.8 | 1700 | – |
| O=C(O)C(F)(F)C(F)(F)C(F)(F)C(F)(F)C(F)(F)C(F)(F)C(F)(F)F [PFOA, perfluorooctanoic acid] | – | – | – | – | Total absorbable fraction [2]: 50%; SRBC IgM antibody titers (IgM response to SRBC; 15 days, 3.75–30 mg/kg via drinking water, ref Dewitt et al., 2008): reduce; IgM response to SRBC (IgM response to SRBC; dermal exposure, ref Shane et al., 2020): suppression; Serum PFOA level ([3]; 0.5% PFOA): 152 ± 14 µg/mL; Serum PFOA level ([3]; 2% PFOA): 226 ± 14 µg/mL; Half-life in humans [4]: 2.1–10.1 years; Total absorbable fraction [5]: 69% |
| O=C(O)C(F)(F)C(F)(F)C(F)(F)C(F)(F)F [PFPeA, perfluoropentanoic acid] | no effect | increased | – | – | – |
